Like-named read-outs stand apart in the source and are kept apart here.
How the values were obtained:
Assay type in all cases: biochemical
MMP-14 = biological target: T1, MMP-14 (Homo sapiens, UniProt P50281); assay: MMP-14 inhibition (in vitro Ki)
T1 construct: The catalytic domain enzyme was expressed in E. coli inclusion bodies, solubilized in urea; made in house

MMP-2 [1] = biological target: T2, MMP-2 (Homo sapiens, UniProt P08253); assay: MMP-2 inhibition (in vitro Ki)
T2 construct: made in house; host or cells: MMP-2-transfected p2AHT2 cells
T2 sequence (P08253 110-660): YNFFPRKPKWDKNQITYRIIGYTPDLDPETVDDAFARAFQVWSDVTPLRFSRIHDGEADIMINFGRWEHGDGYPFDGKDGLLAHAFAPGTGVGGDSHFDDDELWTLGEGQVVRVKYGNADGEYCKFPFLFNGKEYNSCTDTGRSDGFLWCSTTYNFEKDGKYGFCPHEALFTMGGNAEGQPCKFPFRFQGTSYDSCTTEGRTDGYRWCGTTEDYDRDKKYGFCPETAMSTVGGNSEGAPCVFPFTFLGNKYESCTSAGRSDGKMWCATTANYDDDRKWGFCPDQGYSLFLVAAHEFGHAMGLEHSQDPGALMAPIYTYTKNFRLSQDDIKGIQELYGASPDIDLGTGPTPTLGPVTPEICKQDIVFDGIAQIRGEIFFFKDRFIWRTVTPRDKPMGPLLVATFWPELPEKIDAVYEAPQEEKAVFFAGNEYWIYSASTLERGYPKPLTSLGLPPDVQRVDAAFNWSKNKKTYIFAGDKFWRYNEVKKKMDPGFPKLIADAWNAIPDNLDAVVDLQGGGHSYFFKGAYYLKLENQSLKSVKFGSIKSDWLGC

MMP-13 [2] = biological target: T3, MMP-13 (Homo sapiens, UniProt P45452); assay: MMP-13 inhibition (in vitro Ki)
T3 construct: made in house; host or cells: baculovirus / insect cells

MMP-1 = biological target: T4, MMP-1 (Homo sapiens, UniProt P03956); assay: MMP-1 inhibition (in vitro Ki)
T4 construct: made in house; host or cells: MMP-1-transfected HT-1080 cells (spent media)
T4 sequence (P03956 100-469): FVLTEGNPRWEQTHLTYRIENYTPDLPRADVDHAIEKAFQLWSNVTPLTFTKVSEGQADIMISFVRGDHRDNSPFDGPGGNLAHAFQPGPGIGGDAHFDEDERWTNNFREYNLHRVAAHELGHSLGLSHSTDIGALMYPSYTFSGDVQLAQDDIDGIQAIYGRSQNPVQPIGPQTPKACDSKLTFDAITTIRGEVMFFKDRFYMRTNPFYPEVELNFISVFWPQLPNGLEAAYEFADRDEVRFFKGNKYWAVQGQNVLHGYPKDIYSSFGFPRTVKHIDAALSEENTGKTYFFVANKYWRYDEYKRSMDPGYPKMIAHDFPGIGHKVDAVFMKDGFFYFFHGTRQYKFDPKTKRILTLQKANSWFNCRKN

MMP-9 = biological target: T5, MMP-9 (Homo sapiens, UniProt P14780); assay: MMP-9 inhibition (in vitro Ki)
T5 construct: made in house; host or cells: MMP-9-transfected HT1080 cells (spent media)
T5 sequence (P14780 107-707 limits assumed): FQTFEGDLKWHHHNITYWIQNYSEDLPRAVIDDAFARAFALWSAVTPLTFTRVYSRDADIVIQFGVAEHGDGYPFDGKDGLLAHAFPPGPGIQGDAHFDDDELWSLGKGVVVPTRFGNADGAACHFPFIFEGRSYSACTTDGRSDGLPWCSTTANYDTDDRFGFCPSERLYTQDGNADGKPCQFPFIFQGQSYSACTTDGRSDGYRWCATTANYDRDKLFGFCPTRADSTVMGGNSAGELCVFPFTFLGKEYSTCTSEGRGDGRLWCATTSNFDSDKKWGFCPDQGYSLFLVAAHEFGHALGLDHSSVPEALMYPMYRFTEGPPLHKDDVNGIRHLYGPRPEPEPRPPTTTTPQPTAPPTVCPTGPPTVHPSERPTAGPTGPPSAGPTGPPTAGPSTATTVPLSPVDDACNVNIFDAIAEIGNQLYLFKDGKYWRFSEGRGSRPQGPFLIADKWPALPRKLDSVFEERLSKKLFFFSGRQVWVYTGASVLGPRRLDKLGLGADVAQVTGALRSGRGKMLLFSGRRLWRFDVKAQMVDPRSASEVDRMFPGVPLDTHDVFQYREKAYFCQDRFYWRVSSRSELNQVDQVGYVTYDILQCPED

MMP-13 [3] = biological target: T3, MMP-13; assay: In vitro MMP inhibition, Ki determination (fluorogenic substrate II); details: read-out: MMP-13 Ki
Experimental: (§1) Several hydroxamic acids and salts thereof were analyzed in in vitro assays to determine their ability to inhibit the MMP cleavage of peptide substrates. […] and IC50 constants were calculated from the assayed hydroxamic acid-MMP interactions.
(§2) Human recombinant MMP-1, MMP-2, MMP-9, MMP-13, and MMP-14 were used in this assay. All enzymes were prepared in Assignee's laboratories following usual laboratory procedures. Protocols for the preparation and use of these enzymes are available in the scientific literature. See, e.g., Enzyme Nomenclature (Academic Press, San Diego, Calif., 1992) (and the citations therein). See also, Freije et al., “Molecular cloning and expression of collagenase-3, a novel human matrix metalloproteinase produced by breast carcinomas,” J Biol. Chem., 269(24), 16766-16773 (1994).
The MMP-13 was obtained as a proenzyme from a full-length cDNA clone using baculovirus, as described by V. A. Luckow, “Insect Cell Expression Technology,” Protein Engineering: Principles and Practice, pp. 183-218 (edited by J. L. Cleland et al., Wiley-Liss, Inc., 1996). The expressed proenzyme was first purified over a heparin agarose column, and then over a chelating zinc chloride column. The proenzyme was then activated by APMA for use in the assay. […] See also, O'Reilly et al, Baculovirus Expression Vectors: A Laboratory Manual (W.H. Freeman and Co., New York, N.Y., 1992). See also, King et al., The Baculovirus Expression System: A Laboratory Guide (Chapman & Hall, London, England, 1992).
(§3) All MMPs were activated using 4-aminophenylmercuric acetate (“APMA”, Sigma Chemical, St. Louis, Mo.) or trypsin. MMP-9 also was activated using human recombinant MMP-3 (purified in Assignee's laboratory following standard cloning and purification techniques).
(§4) Two fluorogenic, methoxycoumarin-containing polypeptide substrates were used in the MMP inhibition assays: [drawing 427] Here, “Dpa” is 3-(2,4-dinitrophenyl)-L-2,3-diaminopropionyl group, and “MCA” is 7-methoxycoumarin-4-yl acetyl. Substrate (I) was purchased from Baychem (Redwood City, Calif.), and substrate II was prepared Assignee's laboratory. Substrate I was used in the IC50 determination assays, while substrate II was used in the Ki determination assays. In the absence of MMP inhibitory activity, either substrate is cleaved at the Gly-Leu peptide bond. This cleavage separates the highly fluorogenic peptide from the 2,4-dinitrophenyl quencher, thus resulting in increase of fluorescent intensity.
(§5) The stock solutions of the assayed hydroxamic acids (or salts thereof) were prepared in 1% dimethyl sulfoxide (DMSO). These stock solutions were diluted in Buffer A (100 mM Tris-HCl, 100 mM NaCl, 10 mM CaCl2, 0.05% polyoxyethylene 23 lauryl ether, pH 7.5) to obtain solutions with different hydroxamic acid concentrations, i.e., assay solutions with different concentrations of the assayed MMP inhibitory compound. The experiment controls contained the same amount of Buffer A/DMSO as the assayed sample, but contained no hydroxamic acid (or salt thereof).
(§6) The assays from which the Ki determinations were made were performed as follows. The assayed hydroxamic acid samples were incubated in separate wells of untreated white polystyrene plates (Nunc Nalgene International, Rochester, N.Y.), and analyzed on a Tecan SpectraFlour Plus plate reader. The excitation wavelength was 330 nm, and the emission wavelength—420 nm. All samples (assayed hydroxamic acids and controls) were incubated in separate plate wells at room temperature for 1 hr in the presence of 4 μM of MMP substrate (II). In the absence of MMP inhibitory activity, substrate II was cleaved at the Gly-Leu bond resulting in an increase of relative fluorescence. Inhibition was observed as a reduced rate of this increase in relative fluorescence. The various hydroxamic acids were analyzed using a single low enzyme concentration with a single substrate concentration fixed at or below the Km.

MMP-2 [4] = biological target: T2, MMP-2; assay: as above; details: read-out: MMP-2 Ki
Experimental: as §1, §2
The MMP-2 proenzyme was purified by gelatin Sepharose chromatography from MMP-2-transfected p2AHT2 cells provided by Dr. Gregory Goldberg of Washington University (St. Louis, Mo.).
as §3, §4, §5
as §6, with “Km. This protocol is a modification of method by Knight et al., FEBS Lett., 296(3), 263-266 (1992). Apparent inhibitory constants were determined by non-linear regression of reaction velocity as a function of inhibitor and enzyme concentration using Morrison's equation, as described by Kuzmic, Anal. Biochem. 286, 45-50 (2000). […] Since the substrate concentration was chosen to be at or below the Km, the apparent Ki's from this analysis were reported as Ki's without correction for the influence of substrate.” for “Km.”

[5] = Table 9, read-out: MMP-14 Ki (IC-50)
[6] = Table 9, read-out: MMP-2 Ki (IC-50)
[7] = Table 9, read-out: MMP-13 Ki (IC-50)
[8] = Table 9, read-out: MMP-1 Ki (IC-50)
[9] = Table 9, read-out: MMP-9 Ki (IC-50)

Ki (MMP-14; [5]) [µM]	Ki (MMP-2 [1]; [6]) [µM]	Ki (MMP-13 [2]; [7]) [µM]	Ki (MMP-1; [8]) [µM]	Ki (MMP-9; [9]) [µM]	Compound	also measured
> 10	> 10	2.91	> 10	> 10	CN(C(=O)CCCN1CCN(S(=O)(=O)C2(C(=O)NO)CCOCC2)CC1)C1CCCCC1 [Example A130]	
> 10	0.06	0.00158	0.277	0.382	C#CCN(C)C(=O)CCCCC1CCN(S(=O)(=O)C2(C(=O)NO)CCOCC2)CC1 [Example A83]	
> 10	0.0761	0.0448	> 10	0.0429	CCN(C(=O)CCCC1CCN(S(=O)(=O)C2(C(=O)NO)CCOCC2)CC1)c1ccccc1 [Example A147]	
1.25	0.00054	0.00014	5.46	0.00105	O=C(NO)C1(S(=O)(=O)N2CCC(c3ccc(CCC4CCCC4)cn3)CC2)CCOCC1 [Example A106]	
> 10	> 10	0.106	> 10	> 10	CN(C(=O)CCCCN1CCN(S(=O)(=O)C2(C(=O)NO)CCOCC2)CC1)C1CCCCC1 [Example A125]	
> 10	0.00991	0.0028	> 10	0.00096	CC(C)CCc1cnc(C2CCN(S(=O)(=O)C3(C(=O)NO)CCOCC3)CC2)cn1 [Example A117]	
> 10	0.77		> 10	1.62	O=C(NO)C1(S(=O)(=O)N2CCC(N3CCN(c4ccc(F)cc4)CC3)CC2)CCOCC1 [Example A197]	

More lines, now with the values behind:

Compound	Ki (MMP-14; [5]) [µM]	Ki (MMP-2 [1]; [6]) [µM]	Ki (MMP-13 [2]; [7]) [µM]	Ki (MMP-1; [8]) [µM]	Ki (MMP-9; [9]) [µM]	also measured
O=C(NO)C1(S(=O)(=O)N2CCC(OCCCn3nnc(-c4ccc(OC(F)(F)F)cc4)n3)CC2)CCOCC1 [Example A153]	> 10	0.175	0.00037	> 10	1.91	
CCc1ccc(N2CCN(S(=O)(=O)C3(C(=O)NO)CCOCC3)CC2)nc1 [Example 137]						Ki (MMP-13 [3]; value not in parenthesis): 0.00075 µM; Ki (MMP-2 [4]; value not in parenthesis): 0.00037 µM
O=C(NO)C1(S(=O)(=O)N2CCC(c3ccc(C#CCCO)cn3)CC2)CCOCC1 [Example A133]	3.87	0.00077	0.00112	1.9	0.00107	
COCCC(C(=O)NO)S(=O)(=O)N1CCC(c2ccc(CCC(F)(F)C(F)(F)F)cc2)CC1 (centres unmarked) [Example A66, N-hydroxy-4-methoxy-2-({4-[4-(3,3,4,4,4-pentafluorobutyl)phenyl]piperidin-1-yl}sulfonyl)butanamide]						Ki (MMP-14; Table 8, read-out: MMP-14 Ki): 9.64 µM; Ki (MMP-2 [1]; Table 8, read-out: MMP-2 Ki): 0.00215 µM; Ki (MMP-13 [2]; Table 8, read-out: MMP-13 Ki): 0.00128 µM; Ki (MMP-1; Table 8, read-out: MMP-1 Ki): > 10 µM; Ki (MMP-9; Table 8, read-out: MMP-9 Ki): 0.00115 µM
CCCOCCCCC1CCN(S(=O)(=O)C2(C(=O)NO)CCOCC2)CC1 [Example A39, 4-[4-(4-propoxy-butyl)-piperidine-1-sulfonyl]-tetrahydro-pyran-4-carboxylic Acid Hydroxyamide]						Ki (MMP-14; Table 8, read-out: MMP-14 Ki): 1.41 µM; Ki (MMP-2 [1]; Table 8, read-out: MMP-2 Ki): 0.0125 µM; Ki (MMP-13 [2]; Table 8, read-out: MMP-13 Ki): 0.00199 µM; Ki (MMP-1; Table 8, read-out: MMP-1 Ki): 1.99 µM; Ki (MMP-9; Table 8, read-out: MMP-9 Ki): 0.01 µM
COCc1ccc(C2CCN(S(=O)(=O)C3(C(=O)NO)CCOCC3)CC2)nc1 [Example A177]	3.36	0.00383	0.00681	> 10	0.00088	
CCC(CC)(C(=O)NO)S(=O)(=O)N1CCC(Oc2ccc(SC(F)(F)F)cc2)CC1 [Example B2, 2-ethyl-N-hydroxy-2-[(4-{4-[(trifluoromethyl)thio]phenoxy}piperidin-1-yl)sulfonyl]butanamide]						Ki (MMP-14; Table 10, read-out: MMP-14 Ki): 1.54 µM; Ki (MMP-2 [1]; Table 10, read-out: MMP-2 Ki): 0.00121 µM; Ki (MMP-13 [2]; Table 10, read-out: MMP-13 Ki): 0.00107 µM; Ki (MMP-1; Table 10, read-out: MMP-1 Ki): 2.91 µM; Ki (MMP-9; Table 10, read-out: MMP-9 Ki): 0.000483 µM
Cc1cccc(-c2csc(N3CCN(S(=O)(=O)C4(C(=O)NO)CCOCC4)CC3)n2)c1 [Example 414]						Ki (MMP-13 [3]; value outside parentheses): 4.19 µM; Ki (MMP-2 [4]; value outside parentheses): 2.66 µM
